Results on 24 compounds are retold here after patent US20230026696A1, “TRPV4 RECEPTOR LIGANDS” (UNIVERSITY OF UTAH RESEARCH FOUNDATION, priority 2019, published 2023).

Where a name gives a salt, the structure may show the parent alone. Some results are limits rather than exact numbers.

As usually defined, the IC50 is the concentration at which inhibition is half-maximal.

T1 sequence (Q9HBA0 whole entry): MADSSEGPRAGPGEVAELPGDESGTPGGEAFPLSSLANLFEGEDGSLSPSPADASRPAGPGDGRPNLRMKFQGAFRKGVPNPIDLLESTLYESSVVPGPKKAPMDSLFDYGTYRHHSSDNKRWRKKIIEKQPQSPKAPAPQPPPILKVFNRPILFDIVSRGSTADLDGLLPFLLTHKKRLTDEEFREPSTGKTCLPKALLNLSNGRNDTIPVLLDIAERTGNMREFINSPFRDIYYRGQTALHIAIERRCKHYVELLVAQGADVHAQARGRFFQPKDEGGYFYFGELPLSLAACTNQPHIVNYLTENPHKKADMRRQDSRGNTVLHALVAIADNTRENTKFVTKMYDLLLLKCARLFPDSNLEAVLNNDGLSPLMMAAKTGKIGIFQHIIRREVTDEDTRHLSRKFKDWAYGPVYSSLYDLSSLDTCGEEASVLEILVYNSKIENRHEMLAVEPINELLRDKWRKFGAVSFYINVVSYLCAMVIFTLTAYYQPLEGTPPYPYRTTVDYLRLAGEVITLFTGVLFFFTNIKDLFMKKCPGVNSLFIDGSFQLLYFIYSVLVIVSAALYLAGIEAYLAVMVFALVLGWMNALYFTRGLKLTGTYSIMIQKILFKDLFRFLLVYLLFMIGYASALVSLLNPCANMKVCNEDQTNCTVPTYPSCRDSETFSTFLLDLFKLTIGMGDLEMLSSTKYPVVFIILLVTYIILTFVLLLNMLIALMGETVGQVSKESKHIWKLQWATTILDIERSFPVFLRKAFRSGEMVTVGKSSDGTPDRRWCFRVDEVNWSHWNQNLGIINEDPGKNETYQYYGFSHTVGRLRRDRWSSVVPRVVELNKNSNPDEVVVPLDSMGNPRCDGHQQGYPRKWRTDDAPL

The assay has as its target T1, human TRPV4 (Homo sapiens, UniProt Q9HBA0).
T1 construct: expressed in transfected cells
Put plainly: Fluorometric cell-based Ca2+ flux assay, HEK-293 cells stably overexpressing human TRPV4. The following applies: HEK-293 stably overexpressing human TRPV4; agonist GSK1016790A 30 nM. As for the experimental part: Fluorometric cell-based Ca^2+ flux assays were performed to assess TRPV4 antagonist activity and determine potency (IC50 values) in human embryonic kidney-293 cells (HEK-293) that stably overexpress human TRPV4. The assays were performed according to methods described in: Deering-Rice, C. E., Johansen, M. E., Roberts, J. K., Thomas, K. C., Romero, E. G., Lee, J., Yost, G. S., Veranth, J. M., and Reilly, C. A. (2012), Mol. Pharmacol. 81(3), 411-419; Shapiro, D., Deering-Rice, C. E., Romero, E. G., Hughen, R. W., Light, A. R., Veranth, J. M., and Reilly, C. A. (2013), Chem Res. Toxicol., 26, 750-758; and Deering-Rice, C. E., Mitchell, V. K., Romero, E. G., Abdel Aziz, M. H., and Reilly, C. A. (2014), Pharmacol. Res. & Perspectives. 2(5), 1-10.
The HEK-293 cells stably overexpressing human TRPV4 were grown to confluence in 2% (w/v) gelatin-coated 96-well plates in DMEM:F12 media supplemented with 5% fetal bovine serum, 1× penicillin/streptomycin (Invitrogen) and Geneticin (300 μg/mL).
The HEK-293 cells were prepared for assay by replacing the growth media with a 1:1 solution of LHC-9 and Fluo 4-Direct (Invitrogen) reagent containing Fluo 4-AM, pluronic F-127, probenecid, and a proprietary quencher dye. The cells were then incubated at 37° C. for 1 h in a cell culture incubator. The cells were subsequently washed by replacing the loading solution with LHC-9 containing 1 mM water-soluble probenecid (Invitrogen), 750 μM Trypan Red (ATT Bioquest), and a test compound (at various concentrations). The cells were incubated for an additional 30 minutes at 37° C. to allow for Fluo 4-AM cleavage and activation, as well as equilibration to both the test compounds and Fluo 4.
An agonist treatment solution (90 nM GSK1016790A, a potent activator of TRPV4) was prepared in LHC9 at 3× concentration and 25 μL was added to 50 μL of media on the cells in 96 well plates, providing a final concentration of 30 nM. Changes in cellular fluorescence were monitored with a BMG Labtech NOVOStar fluorescence plate reader for 1 minute at 37° C. Data were quantified as the maximum rate of change in fluorescence intensity (max ΔF/s), corrected for media only treatment (negative control), and represented as the percentage of response relative to the no antagonist control. A minimum of three replicates were used for each treatment condition, with a minimum of 8 concentrations to derive the IC50 values reported for each antagonist. The IC50 values for each antagonist, which are shown in Table 4 below, were calculated according to methods described in the assays were performed according to methods described in: Deering-Rice, C. E., Johansen, M. E., Roberts, J. K., Thomas, K. C., Romero, E. G., Lee, J., Yost, G. S., Veranth, J. M., and Reilly, C. A. (2012), Mol. Pharmacol. 81(3), 411-419; Shapiro, D., Deering-Rice, C. E., Romero, E. G., Hughen, R. W., Light, A. R., Veranth, J. M., and Reilly, C. A. (2013), Chem Res. Toxicol., 26, 750-758; and Deering-Rice, C. E., Mitchell, V. K., Romero, E. G., Abdel Aziz, M. H., and Reilly, C. A. (2014), Pharmacol. Res. & Perspectives. 2(5), 1-10.
For orientation: A change in cytosolic calcium serves as a functional read-out for many receptors and channels.
In turn, `CC1(COc2ccc(C#N)cc2)CN(S(=O)(=O)c2ccc(Cl)cc2Cl)C1` [Compound 1, 4-((1-((2,4-Dichlorophenyl)sulfonyl)-3-methylazetidin-3-yl)methoxy)benzonitrile] registered an IC50 of 510 nM.
The same measure for `N#Cc1ccc(OCC2(C(=O)O)CN(S(=O)(=O)c3ccc(Cl)cc3Cl)C2)cc1` [Compound 2, 3-((4-Cyanophenoxy)methyl)-1-((2,4-dichlorophenyl)sulfonyl)azetidine-3-carboxylic acid]: at least 50000 nM; for `N#Cc1ccc(OCC2(CO)CN(S(=O)(=O)c3ccc(Cl)cc3Cl)C2)cc1` [Compound 3, 4-((1-((2,4-Dichlorophenyl)sulfonyl)-3-(hydroxymethyl)azetidin-3-yl)methoxy)benzonitrile]: 270 nM.
The result for `CNC(=O)C1(COc2ccc(C#N)cc2)CN(S(=O)(=O)c2ccc(Cl)cc2Cl)C1` [Compound 4, 3-((4-Cyanophenoxy)methyl)-1-((2,4-dichlorophenyl)sulfonyl)-N-methylazetidine-3-carboxamide] reads 4600 nM; that for `CNCCN(C)C(=O)C1(COc2ccc(C#N)cc2)CN(S(=O)(=O)c2ccc(Cl)cc2Cl)C1` [Compound 5, 3-((4-Cyanophenoxy)methyl)-1-((2,4-dichlorophenyl)sulfonyl)-N-methyl-N-(2-(methylamino)ethyl)azetidine-3-carboxamide], 2250 nM; that for `N#Cc1ccc(OCC2(C(=O)NC3CCOCC3)CN(S(=O)(=O)c3ccc(Cl)cc3Cl)C2)cc1` [Compound 6, 3-((4-cyanophenoxy)methyl)-1-((2,4-dichlorophenyl)sulfonyl)-N-(tetrahydro-2H-pyran-4-yl)azetidine-3-carboxamide], 12900 nM.
`CCOC(=O)C1(COc2ccc(C#N)c(F)c2)CN(S(=O)(=O)c2ccc(Cl)cc2Cl)C1` [Compound 7, Ethyl 3-((4-cyano-3-fluorophenoxy)methyl)-1-((2,4-dichlorophenyl)sulfonyl)azetidine-3-carboxylate] displayed an IC50 of 5000 nM.
The result for `N#Cc1ccc(OCC2(C(N)=O)CN(S(=O)(=O)c3ccc(Cl)cc3Cl)C2)cc1F` [Compound 9, 3-((4-Cyano-3-fluorophenoxy)methyl)-1-((2,4-dichlorophenyl)sulfonyl)azetidine-3-carboxamide] reads 1090 nM; that for `NCc1ccc(OCC2(CO)CN(S(=O)(=O)c3ccc(Cl)cc3Cl)C2)cc1F` [Compound 10, (3-((4-(Aminomethyl)-3-fluorophenoxy)methyl)-1-((2,4-dichlorophenyl)sulfonyl)azetidin-3-yl)methanol], 10000 nM.
Compound `CC(=O)OCC1(COc2ccc(C#N)c(F)c2)CN(S(=O)(=O)c2ccc(Cl)cc2Cl)C1` [Compound 12, (3-((4-Cyano-3-fluorophenoxy)methyl)-1-((2,4-dichlorophenyl)sulfonyl)azetidin-3-yl)methyl acetate] gave an IC50 of 303 nM.
Turning to `COCC1(COc2ccc(C#N)c(F)c2)CN(S(=O)(=O)c2ccc(Cl)cc2Cl)C1` [Compound 13, 4-((1-((2,4-Dichlorophenyl)sulfonyl)-3-(methoxymethyl)azetidin-3-yl)methoxy)-fluorobenzonitrile], the IC50 turned out to be 62 nM.
The same measure for `N#Cc1ccc(OCC2(COP(=O)(O)O)CN(S(=O)(=O)c3ccc(Cl)cc3Cl)C2)cc1F` [Compound 14, Sodium (3-((4-cyano-3-fluorophenoxy)methyl)-1-((2,4-dichlorophenyl)sulfonyl)azetidin-3-yl)methyl phosphate]: 70 nM; for `N#Cc1ccc(OCC2(COS(=O)(=O)CCN)CN(S(=O)(=O)c3ccc(Cl)cc3Cl)C2)cc1F` [Compound 15, (3-((4-Cyano-3-fluorophenoxy)methyl)-1-((2,4-dichlorophenyl)sulfonyl)azetidin-3-yl)methyl 2-aminoethane-1-sulfonate trifluoroacetate salt]: 21 nM.
`N#Cc1ccc(OCC2(CNC3CCOCC3)CN(S(=O)(=O)c3ccc(Cl)cc3Cl)C2)cc1F` [Compound 18, 4-((1-((2,4-Dichlorophenyl)sulfonyl)-3-(((tetrahydro-2H-pyran-4-yl)amino)methyl)azetidin-3-yl)methoxy)-2-fluorobenzonitrile hydrochloride] came in with an IC50 of 0.7 nM.
Turning to `N#Cc1ccc(OCC2(CNCCCO)CN(S(=O)(=O)c3ccc(Cl)cc3Cl)C2)cc1F` [Compound 19, 4-((1-((2,4-Dichlorophenyl)sulfonyl)-3-(((3-hydroxypropyl)amino)methyl)azetidin-3-yl)methoxy)-2-fluorobenzonitrile hydrochloride], the IC50 is 0.5 nM.
The compound `N#Cc1ccc(OCC2(CNCC(N)=O)CN(S(=O)(=O)c3ccc(Cl)cc3Cl)C2)cc1F` [Compound 20, 2-(((3-((4-Cyano-3-fluorophenoxy)methyl)-1-((2,4-dichlorophenyl)sulfonyl)azetidin-3-yl)methyl)amino)acetamide hydrochloride] gave an IC50 of 153 nM.
On to `COCCNCC1(COc2ccc(C#N)c(F)c2)CN(S(=O)(=O)c2ccc(Cl)cc2Cl)C1` [Compound 21, 4-((1-((2,4-dichlorophenyl)sulfonyl)-3-(((2-methoxyethyl)amino)methyl)azetidin-3-yl)methoxy)-2-fluorobenzonitrile hydrochloride], for which the IC50 came out at 18.7 nM.
In turn, `N#Cc1ccc(OCC2(CNCc3nccs3)CN(S(=O)(=O)c3ccc(Cl)cc3Cl)C2)cc1F` [Compound 22, 4-((1-((2,4-dichlorophenyl)sulfonyl)-3-(((thiazol-2-ylmethyl)amino)methyl)azetidin-3-yl)methoxy)-2-fluorobenzonitrile hydrochloride] came in with an IC50 of 117 nM.
As to `N#Cc1ccc(OCC2(CNCC3CCOC3)CN(S(=O)(=O)c3ccc(Cl)cc3Cl)C2)cc1F` (stereo not drawn) [Compound 23, 4-((1-((2,4-Dichlorophenyl)sulfonyl)-3-((((tetrahydrofuran-3-yl)methyl)amino)methyl)azetidin-3-yl)methoxy)-2-fluorobenzonitrile hydrochloride], the IC50 was 4.1 nM.
`CC(O)CNCC1(COc2ccc(C#N)c(F)c2)CN(S(=O)(=O)c2ccc(Cl)cc2Cl)C1` (stereo not drawn) [Compound 24, 4-((1-((2,4-Dichlorophenyl)sulfonyl)-3-(((2-hydroxypropyl)amino)methyl)azetidin-3-yl)methoxy)-2-fluorobenzonitrile hydrochloride] returned an IC50 of 0.9 nM.
The result for `CCNCC1(COc2ccc(C#N)c(F)c2)CN(S(=O)(=O)c2ccc(Cl)cc2Cl)C1` [Compound 25, 4-((1-((2,4-Dichlorophenyl)sulfonyl)-3-((ethylamino)methyl)azetidin-3-yl)methoxy)-2-fluorobenzonitrile hydrochloride] reads 1 nM; that for `N#Cc1ccc(OCC2(CNC3COC3)CN(S(=O)(=O)c3ccc(Cl)cc3Cl)C2)cc1F` [Compound 26, 4-((1-((2,4-Dichlorophenyl)sulfonyl)-3-((oxetan-3-ylamino)methyl)azetidin-3-yl)methoxy)-2-fluorobenzonitrile], 8 nM; that for `N#Cc1ccc(OCC2(CNCC3COC3)CN(S(=O)(=O)c3ccc(Cl)cc3Cl)C2)cc1F` [Compound 27, 4-((1-((2,4-Dichlorophenyl)sulfonyl)-3-(((oxetan-3-ylmethyl)amino)methyl)azetidin-3-yl)methoxy)-2-fluorobenzonitrile], 1 nM.
Turning to `N#Cc1ccc(OCC2(CNC[C@@H]3CCCO3)CN(S(=O)(=O)c3ccc(Cl)cc3Cl)C2)cc1F` [Compound 28, (S)-4-((1-((2,4-dichlorophenyl)sulfonyl)-3-((((tetrahydrofuran-2-yl)methyl)amino)methyl)azetidin-3-yl)methoxy)-2-fluorobenzonitrile hydrochloride], the IC50 came out at 8.7 nM.
